Test results as given in patent US20080058368A1, “4,5,6,7-Tetrahydro-[1,2]Dithiolo[4,3-C] Pyridine-3-Thione Compounds” (priority 2004, published 2008).

How the values were obtained:
[1] = system: Glutathione S-transferase A (GSTA); test: GSTA expression induced by C/EBPβ activation, immunochemical method; format: cell-based; parameters: key: +: similar activation effects to oltipraz; ++: stronger activation effects than oltipraz; settings: 30 μM, 24 hours, nuclear fractions or lysates, relative to oltipraz
Description: (§1) The present experimental example is to confirm C/EBPβ activation by using Compound 1 and Compound 2 which were prepared in the above Examples, and a degree of increase of Glutathione S-transferase A (GSTA), a representative gene which is induced by C/EBPβ activation. […] 0.7 mg/ml of MTT (yellow tetrazolium salt) was added thereto and further cultured for 4 hours. Since MTT is reduced to insoluble formazan crystal in survived cells, the produced crystal was dissolved with DMSO solvent, and the absorbance at 595 nm was measured. The cells were cultured with the newly prepared compounds except for the compounds which kill cells, i.e., Compound 1 and Compound 2 (each 30 μM), for 24 hours, and C/EBPβ activation and GSTA expression in nuclear fractions or lysates obtained from the treated cells were measured by immunochemical method.
When C/EBPβ gene is deleted in animals, regeneration of live tissue is impossible [Greenbaum et al., J Clin Invest. 1998; 102(5):996-1007]. C/EBPβ activation inhibits transforming growth factors (TGF-β) which is a mediating factor of hepatic fibrosis [Kang et al., FASEB J. 2002; 16(14):1988-90]. Therefore, C/EBPβ activation plays an important role in liver tissue regeneration and hepatic fibrosis inhibition. […]

C/EBPβ = C/EBPβ activation (phosphorylation, nuclear translocation) by immunochemical method in treated cells; format: cell-based; parameters: key to C/EBPβ activation: O: same enzyme induction as oltipraz; OO: stronger enzyme induction than oltipraz; settings: for C/EBPβ activation: 30 μM, 24 hours, nuclear fractions or lysates, relative to oltipraz; for phosphorylation of 105Serine residue of C/EBPβ: after 3 hours from the culture; for p-C/EBPβ (105Serine) localisation, cytoplasmic to nuclear fractions: after 6 hours
Description: as §1
When C/EBPβ gene is deleted in animals, regeneration of live tissue is impossible [Greenbaum et al., J Clin Invest. 1998; 102(5):996-1007]. C/EBPβ activation inhibits transforming growth factors (TGF-β) which is a mediating factor of hepatic fibrosis [Kang et al., FASEB J. 2002; 16(14):1988-90]. Therefore, C/EBPβ activation plays an important role in liver tissue regeneration and hepatic fibrosis inhibition. C/EBPβ activation process takes place by mediating phosphorylation of specific amino acid residue, i.e., ^105Serine residue of C/EBPβ [Buck et al., Mol. Cell. 1999; 4(6):1087-92]. Under this background art, it was observed whether or not direct increase of RSK1's activity by the compounds of the present invention induces phosphorylation of ^105Serine residue of C/EBPβ. […] In this experimental example, oltipraz was used as comparative example.

SMILES	GSTA induction [1]	degree of phosphorylation of 188Threonine residue of C/EBPβ (C/EBPβ)	C/EBPβ activation (C/EBPβ)	phosphorylation of 105Serine residue of C/EBPβ (C/EBPβ)	p-C/EBPβ (105Serine) localisation, cytoplasmic to nuclear fractions (C/EBPβ)
S=c1ssc2c1CN(Cc1ccccc1)CC2 [Compound 1, 5-benzyl-4,5,6,7-tetrahydro-1,2-dithiolo[4,3-c]pyridine-3-thion]	++	not changed at all	O	increased	moved into the nuclear fractions
CCOC(=O)N1CCc2ssc(=S)c2C1 [Compound 2, 3-thioxo-6,7-dihydro-3H,4H-1,2-dithiolo[4,3-c]pyridine-5-carboxylic acid ethyl ester]	++	not changed at all	O	increased	moved into the nuclear fractions
